US20130317215A1, “STABLE SYNTHETIC INTERMEDIATE AND METHOD FOR MANUFACTURING SAME” (KYORIN PHARMACEUTICAL CO., LTD., priority 2010, published 2013)
“Also recorded” adds a separate entry of the source.

Experiments:
[1] = Storage stability at room temperature, chemical purity by HPLC (Test Example 2); type: physicochemical
Description: The compounds (5) and (6) were each sealed in a glass bottle and stored at room temperature. At this time, the chemical purity of each compound was measured. After 6 weeks of storage and after 10 weeks of storage, the compound (5) was measured. After 19 months of storage, the compound (6) was measured. The chemical purity was represented by proportions of each compound and a degraded substance (compound (8)), calculated from area ratios measured by HPLC. HPLC measurement conditions are shown below. The chemical purity of the compound (6) was calculated on the basis of the peak of the compound (5).
Measurement wavelength: 220 nm
Column: TSKgel Octyl-80Ts, 4.6 mm I.D.×150 mm
Column temperature: 40° C.
Mobile phase A: acetonitrile
Mobile phase B: diluted phosphoric acid (1→1,000)

[2] = Change in physical properties during storage at room temperature (Test Example 1); type: physicochemical; conditions: for Physical properties, after 10 weeks: sealed in a glass bottle, stored at room temperature for 10 weeks
Excerpt: The compound (5) was sealed in a glass bottle and stored at room temperature for 10 weeks. The compound (6) was sealed in a glass bottle and stored at room temperature for 19 months.

CCc1cc(OC)cc(N)c1C(=O)O [Compound (5)]
Proportion of the compound degraded ([1]; after 10 weeks of storage at room temperature): ≥ 50% | HPLC purity, peak Compound (5), after 6 weeks ([1]; sealed glass bottle, room temperature, 6 weeks, HPLC area ratio): 94.1% | HPLC purity, peak Compound (5), after 10 weeks ([1]; sealed glass bottle, room temperature, 10 weeks, HPLC area ratio): 38.4% | Physical properties, in synthesis ([2]; compound (5), before storage): WHITE POWDER | Physical properties, after 10 weeks [2]: YELLOW SEMI-SOLID | Physical properties, after 10 weeks ([2]; listed as compound (5)): the physical properties were changed; also recorded: yellow semi-solid
